Test system: 993429-296-R-J1-PDC complex spheroid growth, percent test/control
Assay: Anticancer human tumor 993429-296-R-J1-PDC patient-derived uterine sarcoma cell line growth inhibition [Asc]
Conditions: for IC50: curve of first compound; for viability, T/C: stronger effect = lower value
Procedure, shortened: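 Tumor cells were grown as multicellular spheroids with stromal HUVEC and mesenchymal stem cells and treated singly or in combination. Concentrations fell in half-log steps from the clinical Cmax, or from 10 microM where none was known.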

[1] = second compound 0.1 µM, first compound 0.0316 µM
[2] = second compound 0.1 µM, first compound 0.1 µM
[3] = second compound 0.1 µM, first compound 0.316 µM
[4] = second compound 0.1 µM, first compound 1 µM
[5] = second compound 0.316 µM, first compound 0.0316 µM
[6] = second compound 0.316 µM, first compound 0.1 µM
[7] = second compound 0.316 µM, first compound 0.316 µM
[8] = second compound 0.316 µM, first compound 1 µM
[9] = second compound 1 µM, first compound 0.0316 µM
[10] = second compound 1 µM, first compound 0.1 µM
[11] = second compound 1 µM, first compound 0.316 µM
[12] = second compound 1 µM, first compound 1 µM
[13] = second compound 3.16 µM, first compound 0.0316 µM
[14] = second compound 3.16 µM, first compound 0.1 µM
[15] = second compound 3.16 µM, first compound 0.316 µM
[16] = second compound 3.16 µM, first compound 1 µM
[17] = second compound 10 µM, first compound 0.0316 µM
[18] = second compound 10 µM, first compound 0.1 µM
[19] = second compound 10 µM, first compound 0.316 µM
[20] = second compound 10 µM, first compound 1 µM
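Note: spheroids exposed to compounds for seven days.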

O=C(c1cc(Cc2n[nH]c(=O)c3ccccc23)ccc1F)N1CCN(C(=O)C2CC2)CC1 + Cc1c(S(C)(=O)=O)c(-c2cc(F)cc(N3CCN(c4ccc(NS(=O)(=O)c5ccc(NC(CCN6CCC(C(=O)OCCCP(=O)(O)O)CC6)CSc6ccccc6)c(S(=O)(=O)C(F)(F)F)c5)cc4)CC3)c2)c(-c2ccc(Cl)cc2)n1C(C)C
IC50 (second compound 0.1 µM): 944 nM | IC50 (second compound 0.316 µM): 1110 nM | IC50 (second compound 1 µM): 773 nM | IC50 (second compound 3.16 µM): < 31.6 nM | IC50 (second compound 10 µM): 1480 nM | viability, T/C [1]: 89.2% | viability, T/C [2]: 53.2% | viability, T/C [3]: 56.9% | viability, T/C [4]: 59.6% | viability, T/C (second compound 0.1 µM, first compound 3.16 µM): 37.8% | viability, T/C (second compound 0.1 µM, first compound 10 µM): 9.27% | viability, T/C [5]: 55.8% | viability, T/C [6]: 51.1% | viability, T/C [7]: 69.8% | viability, T/C [8]: 49.3% | viability, T/C (second compound 0.316 µM, first compound 3.16 µM): 29.1% | viability, T/C (second compound 0.316 µM, first compound 10 µM): 8.15% | viability, T/C [9]: 51.5% | viability, T/C [10]: 55.8% | viability, T/C [11]: 57.2% | viability, T/C [12]: 48.2% | viability, T/C (second compound 1 µM, first compound 3.16 µM): 20.5% | viability, T/C (second compound 1 µM, first compound 10 µM): 5.17% | viability, T/C [13]: 42% | viability, T/C [14]: 39% | viability, T/C [15]: 44.3% | viability, T/C [16]: 32.6% | viability, T/C (second compound 3.16 µM, first compound 3.16 µM): 19.3% | viability, T/C (second compound 3.16 µM, first compound 10 µM): 4.24% | viability, T/C [17]: 86.9% | viability, T/C [18]: 85.8% | viability, T/C [19]: 59.9% | viability, T/C [20]: 70% | viability, T/C (second compound 10 µM, first compound 3.16 µM): 13.5% | viability, T/C (second compound 10 µM, first compound 10 µM): 1.63%

O=C(c1ccc(F)c(F)c1Nc1ccc(I)cc1F)N1CC(O)([C@@H]2CCCCN2)C1 + Cc1c(S(C)(=O)=O)c(-c2cc(F)cc(N3CCN(c4ccc(NS(=O)(=O)c5ccc(NC(CCN6CCC(C(=O)OCCCP(=O)(O)O)CC6)CSc6ccccc6)c(S(=O)(=O)C(F)(F)F)c5)cc4)CC3)c2)c(-c2ccc(Cl)cc2)n1C(C)C
IC50 (second compound 0.1 µM): 7.5 nM | IC50 (second compound 0.316 µM): 9.6 nM | IC50 (second compound 1 µM): 4.44 nM | IC50 (second compound 3.16 µM): < 3.16 nM | IC50 (second compound 10 µM): 15.8 nM | viability, T/C (second compound 0.1 µM, first compound 0.00316 µM): 63% | viability, T/C (second compound 0.1 µM, first compound 0.01 µM): 42.8% | viability, T/C [1]: 31.9% | viability, T/C [2]: 10.2% | viability, T/C [3]: 1.93% | viability, T/C [4]: 0.33% | viability, T/C (second compound 0.316 µM, first compound 0.00316 µM): 55.9% | viability, T/C (second compound 0.316 µM, first compound 0.01 µM): 52.7% | viability, T/C [5]: 29.1% | viability, T/C [6]: 15.3% | viability, T/C [7]: 1.67% | viability, T/C [8]: 0.23% | viability, T/C (second compound 1 µM, first compound 0.00316 µM): 57.6% | viability, T/C (second compound 1 µM, first compound 0.01 µM): 30.8% | viability, T/C [9]: 19.3% | viability, T/C [10]: 5.07% | viability, T/C [11]: 0.22% | viability, T/C [12]: 0.14% | viability, T/C (second compound 3.16 µM, first compound 0.00316 µM): 39.2% | viability, T/C (second compound 3.16 µM, first compound 0.01 µM): 30.8% | viability, T/C [13]: 21.1% | viability, T/C [14]: 2.83% | viability, T/C [15]: 0.52% | viability, T/C [16]: 0.18% | viability, T/C (second compound 10 µM, first compound 0.00316 µM): 72% | viability, T/C (second compound 10 µM, first compound 0.01 µM): 68.7% | viability, T/C [17]: 21.6% | viability, T/C [18]: 3.49% | viability, T/C [19]: 0.84% | viability, T/C [20]: 0.16%
